Measurements taken from US20250270209A1 (INTERLINE THERAPEUTICS, INC., priority 2022, published 2025).

Key:
[1] = molecular target: LRRK2 wild type enzyme (Homo sapiens, UniProt Q5S007); assay: Biochemical Assay: LRRK2 TR-FRET (LanthaScreen) kinase assay with LRRKtide substrate; conditions: LRRK2 Inhibition, Table 8
Description: 10 mM compound solution was prepared in DMSO. An 11-point, 3-fold dilution was performed, with highest concentration at 10 μM. A 10 mM compound DMSO solution was added to Labcyte LDV plate and the compound concentration of source plate was 10 mM. The 1st compound concentration of Inter plate(Labcyte 384 well PP plate) was 4.938×10^−1 mM which was prepared by transferring 1.5 μL of 10 mM compound from source plate to 28.9 μL DMSO. The 2nd compound concentration of Inter plate was 1.829×10^−2 mM which was prepared by transferring 60 nL of 10 mM compound from source plate to 32.7 μL DMSO. The 3rd compound concentration of Inter plate was 6.774×10^−4 mM which was prepared by transferring 2.5 nL of 10 mM compound from source plate to 36.9 μL DMSO. 100 nL of reference compound was dispensed in column 1 for low control wells and 100 nL of DMSO in column 24 for high control wells. Compounds were dispensed to column 2 to 23 of assay plate and backfilled with DMSO to a total volume of 100 nL.
A 2X LRRK2 enzyme solution (final concentration 3 nM) was prepared in assay buffer (Tris-HCl pH8.0:50 mM, MgCl2: 5 mM, EDTA: 1 mM, Brij-35:0.01%, 2 mM DTT). A 2× substrate solution was prepared: LRRK2 tide substrate (final concentration 400 nM) and ATP (final concentration 25 μM) in assay buffer. 5 μL 2× LRRK2 enzyme solution was dispensed to each well in assay plate by Multidrop. Assay plate was spun at 1,000 rpm for 1 min and incubated for 15 min at 23° C. 5 μL 2× ATP/LRRKtide solution was dispensed to each well in assay plate by Multidrop. Assay plate was spun at 1,000 rpm for 1 min and incubated for 120 min at 23° C.
(§1) A 2× detection solution was prepared: Tb-pERM (pLRRKtide) antibody (final concentration 0.25 nM) and EDTA (final concentration 10 mM) in TR-FRET dilution buffer. 10 μL 2× detection solution was dispensed to each well in assay plate to stop kinase reaction by Multidrop. Assay plate was spun at 1,000 rpm for 1 min and incubate for 30 min at 23° C. Assay plate was then read on Envision configured for LanthaScreen® TR-FRET. pS935 LRRK2 Cell Assay

[2] = molecular target: T1, wild type LRRK2 overexpressed in recombinant HEK-293T cells (Homo sapiens, UniProt Q5S007); assay: pS935 LRRK2 Cell Assay (HTRF, phospho-LRRK2 Ser935); type: cell-based; conditions: LRRK2 Inhibition, Table 8, 2 hours compound incubation
T1 construct: host or cells: HEK293T (transient transfection with pCMV-LRRK2 WT plasmid)
Description: as §1
The following protocol describes an in-vitro method for measuring phosphorylation at Ser935 on wild type LRRK2 overexpressed in recombinant HEK-293T cells. The method is based on HTRF technology, which combines Fluorescence Resonance Energy Transfer (FRET) with Time-Resolved measurement (TR). Phospho-LRRK2 (Ser935) is detected in a sandwich assay format using two different specific antibodies, one labelled with Eu3+-Cryptate (donor) and the second with d2(acceptor).When the fluorophores are in close proximity, excitation of the donor with a light source (flash lamp) stimulates FRET to the acceptor, which in turn fluoresces at a specific wavelength (665 nm). The fluorescence emission at 615 nm from the donor is also measured to allow ratiometric reduction of data. The specific signal is proportional to phospho-LRRK2 (Ser935).
Plasmid transient transfection: DMEM medium, FBS, DPBS, Trans-IT, OPTI-MEM reagents were allowed to warm to room temperature. HEK293T cells were cultured in DMEM +10% FBS complete medium in T150 flasks till around 80% confluency before transfection. Then cells were washed with 10 mL PBS and detached with 3 mL 0.25% typinsin. 30×10E6 HEK293T cells were seeded in DMEM +10% FBS complete medium to a 15 cm dish.
DNA, TransIT-LT1, OPTI-MEM complex were prepared: […] OPTI-MEM was added to a 15 mL cone tube, then […] plasmid was added to OPTI-MEM and mixed, followed by addition of 60 μL TransIT-LT1 to the plasmid OPTI-MEM mixture and mixing. The resulting mixture was incubated for 15 minutes.
The above plasmid, DNA and OPTI-MEM mixture was added dropwise to the 15 cm dish, ensuring the drops were evenly distributed. The culture dish was gently rocked back and forth and from left to right to evenly distribute the complex. The tranfected dish was incubated for 24 hours at 37° C., and 5% CO2.
Transfected HEK293T was collected in the 15 cm dish. Media was aspirated from tissue culture dish, and washed by dispensing 10 mL 1× DPBS into 15 cm dish. 1× DPBS was aspirated and 3 mL trypsin was dispensed to 15 cm dish. The dish was incubated with trypsin at room temperature for 3 min until the cells were detached. 10 mL of DMEM +10% FBS medium were added to 15 cm dish and triturated to ensure homogenous cell suspensions.
Homogenous cell suspensions were transferred to a 50 mL tube, and centrifuged for 5 minutes at 1,000 rmp/min. The supernatant was aspirated and resuspended with 20 mL complete medium. 1 mL of cell suspension was transferred for cell counting. The cell suspension was diluted to 2× 10E5 cells/ml. 50 μL cell suspensions were added to a 384-well plate. The plate was quick spun at 800 rpm for 1 minute, then incubate overnight at 37° C., 5% CO2.
Compound dispensing: compound was diluted (10 mM DMSO stock solution) and added to assay plate (top concentration: 10 μM, 3 fold serial dilution, 9 doses) with duplicates by Tecan liquid handler. The DMSO concentration of each well was normalized to 0.2%. Plates were quick spun at 1,000 rpm for 1 minute. Plates were incubated at 37° C., 5% CO2 for 2 hours.
1× lysis buffer solution supplemented with blocking reagent was prepared (e.g. 1 mL lysis buffer 4X+3 mL water+40 μL stock blocking reagent 100X). Antibodies working solution was prepared by diluting 40-fold d2 and Cryptate antibodies with detection buffer(e.g. 1520 μL detection buffer+40 μL d2-antibody stock solution+[…] Cryptate-antibody stock solution).
After 2 hours incubation, cell plates were taken out from the incubator. […]

T1 sequence (Q5S007 whole entry): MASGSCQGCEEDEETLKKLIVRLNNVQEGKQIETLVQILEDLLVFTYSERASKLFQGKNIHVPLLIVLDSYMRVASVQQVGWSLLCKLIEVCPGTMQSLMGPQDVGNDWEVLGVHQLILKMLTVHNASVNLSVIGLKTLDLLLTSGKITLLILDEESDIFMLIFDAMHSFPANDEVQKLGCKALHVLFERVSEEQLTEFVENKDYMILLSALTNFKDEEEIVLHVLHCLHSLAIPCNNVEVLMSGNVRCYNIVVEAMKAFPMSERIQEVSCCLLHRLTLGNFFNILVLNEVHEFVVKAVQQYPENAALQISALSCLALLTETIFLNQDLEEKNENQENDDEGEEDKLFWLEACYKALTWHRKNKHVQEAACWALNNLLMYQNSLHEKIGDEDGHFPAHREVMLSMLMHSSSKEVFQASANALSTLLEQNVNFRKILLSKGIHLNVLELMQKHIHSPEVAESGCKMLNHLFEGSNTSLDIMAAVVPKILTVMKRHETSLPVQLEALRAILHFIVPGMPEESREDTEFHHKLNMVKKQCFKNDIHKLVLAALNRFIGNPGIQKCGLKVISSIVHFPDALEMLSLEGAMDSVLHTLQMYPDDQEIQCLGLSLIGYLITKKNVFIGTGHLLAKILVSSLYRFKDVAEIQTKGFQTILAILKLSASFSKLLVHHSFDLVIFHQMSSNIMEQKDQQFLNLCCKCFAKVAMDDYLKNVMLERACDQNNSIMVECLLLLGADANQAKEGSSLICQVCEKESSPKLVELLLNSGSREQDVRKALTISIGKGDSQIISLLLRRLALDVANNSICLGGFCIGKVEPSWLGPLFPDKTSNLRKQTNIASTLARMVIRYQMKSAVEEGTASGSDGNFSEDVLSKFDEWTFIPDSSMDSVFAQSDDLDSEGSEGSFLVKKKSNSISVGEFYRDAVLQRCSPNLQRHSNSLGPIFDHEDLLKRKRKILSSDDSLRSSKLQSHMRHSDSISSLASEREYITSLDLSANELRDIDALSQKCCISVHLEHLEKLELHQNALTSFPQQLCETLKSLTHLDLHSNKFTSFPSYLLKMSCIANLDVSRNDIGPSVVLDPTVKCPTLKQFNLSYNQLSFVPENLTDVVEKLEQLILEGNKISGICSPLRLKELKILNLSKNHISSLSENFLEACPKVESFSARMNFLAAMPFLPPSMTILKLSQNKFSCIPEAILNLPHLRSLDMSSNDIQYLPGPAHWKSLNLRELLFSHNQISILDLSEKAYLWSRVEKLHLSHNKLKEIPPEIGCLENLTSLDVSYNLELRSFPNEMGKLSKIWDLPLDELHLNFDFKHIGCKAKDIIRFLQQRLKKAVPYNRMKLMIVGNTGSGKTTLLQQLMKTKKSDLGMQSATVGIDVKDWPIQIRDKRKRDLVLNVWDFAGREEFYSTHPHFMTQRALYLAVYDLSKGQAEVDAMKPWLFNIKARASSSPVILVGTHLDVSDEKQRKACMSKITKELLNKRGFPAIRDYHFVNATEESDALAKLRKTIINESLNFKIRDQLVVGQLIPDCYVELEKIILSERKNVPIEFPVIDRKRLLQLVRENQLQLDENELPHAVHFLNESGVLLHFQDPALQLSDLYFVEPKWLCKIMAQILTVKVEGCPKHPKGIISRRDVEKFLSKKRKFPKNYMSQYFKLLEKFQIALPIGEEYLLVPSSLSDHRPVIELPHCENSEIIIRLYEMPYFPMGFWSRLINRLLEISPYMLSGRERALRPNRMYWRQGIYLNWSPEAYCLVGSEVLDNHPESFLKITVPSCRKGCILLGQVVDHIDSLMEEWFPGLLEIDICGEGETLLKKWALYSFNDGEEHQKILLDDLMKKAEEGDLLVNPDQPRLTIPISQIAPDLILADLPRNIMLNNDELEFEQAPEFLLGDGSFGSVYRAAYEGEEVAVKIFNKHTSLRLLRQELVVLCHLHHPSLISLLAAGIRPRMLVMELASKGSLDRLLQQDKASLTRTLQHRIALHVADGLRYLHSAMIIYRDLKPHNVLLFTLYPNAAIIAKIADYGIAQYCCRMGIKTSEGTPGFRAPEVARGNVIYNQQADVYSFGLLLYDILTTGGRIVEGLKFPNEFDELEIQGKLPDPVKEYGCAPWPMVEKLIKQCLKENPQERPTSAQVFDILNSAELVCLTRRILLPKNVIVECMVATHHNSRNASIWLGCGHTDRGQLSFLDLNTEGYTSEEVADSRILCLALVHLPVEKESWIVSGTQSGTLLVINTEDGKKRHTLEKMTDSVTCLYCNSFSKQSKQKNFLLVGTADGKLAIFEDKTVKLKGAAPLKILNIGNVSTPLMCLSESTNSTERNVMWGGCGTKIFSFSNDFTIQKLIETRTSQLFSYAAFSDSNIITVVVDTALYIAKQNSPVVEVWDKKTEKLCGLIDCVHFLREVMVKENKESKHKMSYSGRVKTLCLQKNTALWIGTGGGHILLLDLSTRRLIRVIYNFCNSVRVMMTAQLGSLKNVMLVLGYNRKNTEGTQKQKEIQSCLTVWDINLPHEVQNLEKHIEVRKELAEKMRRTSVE
Chain of LRRK2 wild type enzyme (Q5S007 whole entry): as above

| SMILES | IC50 [1] | IC50 [2] |
| --- | --- | --- |
| C[C@@H]1C[C@H](n2c(C3CC(=O)N(C)C3)nc3cnc4ccc(C#N)cc4c32)CCO1 (mixture of isomers) [Compound 53, 2-[(3RS)-1-methyl-5-oxopyrrolidin-3-yl]-1-[(2R,4R)-2-methyloxan-4-yl]-1H-imidazo[4,5-c]quinoline-8-carbonitrile] | 3.16 nM | 666 nM |
| C[C@@H]1C[C@H](n2c(CC(=O)NCC3COC3)nc3cnc4ccc(C#N)cc4c32)CCO1 [Compound 177, 2-{8-cyano-1-[(2R,4R)-2-methyloxan-4-yl]-1H-imidazo[4,5-c]quinolin-2-yl}-N-[(oxetan-3-yl)methyl]acetamide] | 0.524 nM | 124 nM |
| C[C@@H]1C[C@H](n2c(CN3CCC(C(=O)O)C3)nc3cnc4ccc(C#N)cc4c32)CCO1 (stereo partly drawn) [Compound 77, 1-({8-cyano-1-[(2R,4R)-2-methyloxan-4-yl]-1H-imidazo[4,5-c]quinolin-2-yl}methyl)pyrrolidine-3-carboxylic acid] | 34.2 nM | 5160 nM |
| CC(=O)N1CC[C@H](c2nc3cnc4ccc(C#N)cc4c3n2[C@@H]2CCO[C@H](C)C2)C1 [Compound 43, 2-[(3S)-1-acetylpyrrolidin-3-yl]-1-[(2R,4R)-2-methyloxan-4-yl]-1H-imidazo[4,5-c]quinoline-8-carbonitrile] | 12.4 nM | 1680 nM |
| C[C@@H]1C[C@H](n2c(CC(=O)N[C@@H]3C[C@H]3c3cccnc3)nc3cnc4ccc(C#N)cc4c32)CCO1 [Compound 365, N-[(1R,2S)-2-(3-pyridyl)cyclopropyl]{3-[(2R,4R)-2-methyltetrahydro-2H-pyran-4-yl]-12-cyano-3,5,8-triazatricyclo[7.4.0.0^2,6]trideca-1(13),2(6),4,7,9,11-hexaen-4-yl}acetamide] | 0.536 nM | 23.3 nM |
| C[C@@H]1C[C@H](n2c(CC(=O)N3CCCC3)nc3cnc4ccc(C#N)cc4c32)CCO1 [Compound 85, 1-[(2R,4R)-2-methyloxan-4-yl]-2-[2-oxo-2-(pyrrolidin-1-yl)ethyl]-1H-imidazo[4,5-c]quinoline-8-carbonitrile] | 5.11 nM | 416 nM |
| C[C@@H]1C[C@H](n2c(CC(=O)NCCC(F)(F)F)nc3cnc4ccc(C#N)cc4c32)CCO1 [Compound 167, 2-{8-cyano-1-[(2R,4R)-2-methyloxan-4-yl]-1H-imidazo[4,5-c]quinolin-2-yl}-N-(3,3,3-trifluoropropyl)acetamide] | 0.638 nM | 46.2 nM |
| C[C@@H]1C[C@H](n2c(CC(=O)Nc3ncc(C4CC4)cn3)nc3cnc4ccc(C#N)cc4c32)CCO1 [Compound 344, N-(5-cyclopropyl-2-pyrimidinyl){3-[(2R)-2-methyltetrahydro-2H-pyran-4-yl]-12-cyano-3,5,8-triazatricyclo[7.4.0.0^2,6]trideca-1(9),2(6),4,7,10,12-hexaen-4-yl}acetamide] | 0.453 nM | 4.11 nM |
| Cc1nc2ccc(C#N)cc2c2c1nc(CC(=O)NCC1CC1)n2[C@@H]1CCO[C@H](C)C1 [Compound 364, N-cyclopropylmethyl{3-[(2R,4R)-2-methyltetrahydro-2H-pyran-4-yl]-12-cyano-7-methyl-3,5,8-triazatricyclo[7.4.0.0^2,6]trideca-1(9),2(6),4,7,10,12-hexaen-4-yl}acetamide] | 186 nM | 6770 nM |
| C[C@@H]1C[C@H](n2c(CC(=O)NC3CC3F)nc3cnc4ccc(C#N)cc4c32)CCO1 (stereo in doubt) [Compound 245, N-[(1R,2R)-2-fluorocyclopropyl]{3-[(2R,4R)-2-methyltetrahydro-2H-pyran-4-yl]-12-cyano-3,5,8-triazatricyclo[7.4.0.0^2,6]trideca-1(13),2(6),4,7,9,11-hexaen-4-yl}acetamide] | 0.947 nM | 71 nM |
| Cc1ncccc1NC(=O)Cc1nc2cnc3ccc(C#N)cc3c2n1[C@@H]1CCO[C@H](C)C1 [Compound 316, N-(2-methyl-3-pyridyl){3-[(2R,4R)-2-methyltetrahydro-2H-pyran-4-yl]-12-cyano-3,5,8-triazatricyclo[7.4.0.0^2,6]trideca-1(9),2(6),4,7,10,12-hexaen-4-yl}acetamide] | 0.527 nM | 6.81 nM |
| C[C@@H]1C[C@H](n2c(CC(=O)NCc3ccn(C)n3)nc3cnc4ccc(C#N)cc4c32)CCO1 [Compound 157, 2-{8-cyano-1-[(2R,4R)-2-methyloxan-4-yl]-1H-imidazo[4,5-c]quinolin-2-yl}-N-[(1-methyl-1H-pyrazol-3-yl)methyl]acetamide] | 0.505 nM | 25.7 nM |
| C[C@@H]1C[C@H](n2c(CC(=O)N[C@H]3CCCc4cccnc43)nc3cnc4ccc(C#N)cc4c32)CCO1 [Compound 358, N-[(S)-5,6,7,8-tetrahydro-8-quinolyl]{3-[(2R,4R)-2-methyltetrahydro-2H-pyran-4-yl]-12-cyano-3,5,8-triazatricyclo[7.4.0.0^2,6]trideca-1(9),2(6),4,7,10,12-hexaen-4-yl}acetamide] | 0.602 nM | 24.5 nM |
| C[C@@H]1C[C@H](n2c(CC(=O)Nc3cccnc3)nc3cnc4ccc(Cl)cc4c32)CCO1 [Compound 325, N-3-pyridyl{3-[(2R,4R)-2-methyltetrahydro-2H-pyran-4-yl]-12-chloro-3,5,8-triazatricyclo[7.4.0.0^2,6]trideca-1(9),2(6),4,7,10,12-hexaen-4-yl}acetamide] | 0.44 nM | 2.54 nM |
| C[C@@H]1C[C@H](n2c(CC(=O)N[C@@H]3CCOC3)nc3cnc4ccc(Cl)cc4c32)CCO1 [Compound 145, 2-{8-chloro-1-[(2R,4R)-2-methyloxan-4-yl]-1H-imidazo[4,5-c]quinolin-2-yl}-N-[(3R)-oxolan-3-yl]acetamide] | 0.616 nM | 13.5 nM |
| COCCn1ccc(NC(=O)Cc2nc3cnc4ccc(C#N)cc4c3n2[C@@H]2CCO[C@H](C)C2)n1 [Compound 174, 2-{8-cyano-1-[(2R,4R)-2-methyloxan-4-yl]-1H-imidazo[4,5-c]quinolin-2-yl}-N-[1-(2-methoxyethyl)-1H-pyrazol-3-yl]acetamide] | 0.316 nM | 5.35 nM |
